# Read-outs that look alike come from different tables or passages of the source.
# What was measured:
# Fusarium graminerum = assay type: cell-based; conditions: 6 days after inoculation
# Text: The Colby equation (Colby, 1967. Weeds 15:20-22) calculates the expected antifungal activity (E in %) of a combination comprising more than one active ingredients:
# (§1) wherein X and Y are the observed antifungal activities (in %) of the individual active ingredients x and y, respectively. If the observed antifungal activity (O in %) of the combination exceeds the expected antifungal activity (E in %) of the combination and the synergy factor O/E is thus >1.0, the combined application of the active ingredients leads to a synergistic antifungal effect.
# Agar medium was prepared by mixing in a 100 ml Duran bottle 3.9 g of potato dextrose agar (PDA) from Carl-Roth (Carl-Roth GmbH+Co. KG, Karlsruhe, Germany) with 100 ml deionized water and autoclaving the Duran bottle at 120° C. for 15 minutes. After autoclaving, the solution was cooled by putting it in a 48° C. oven for about two hours. Afterward the semi-liquid PDA solution was carefully mixed with natamycin and/or insecticide dosages as specified in Table 5 showing the interaction results on petri dishes. The medium in the Duran bottle was divided over 5 petri dishes (90×15 mm), 20 ml per petri dish by using 25 ml serological pipets (ROTILABO®; Carl-Roth). Each natamycin and/or insecticide treatment was performed in fivefold.
# Fungal spore suspensions were prepared by drenching a fully grown petri dish with sterile water. The fungus was scraped off and filtered through a Miracloth (pore size: 22-25 μm) (Merck KGaA, Darmstadt, Germany; catalogue number: 475855). The number of spores were counted with a hemocytometer and fungal suspension was adjusted to 10^6 spores per ml. Afterward, 5 μl of prepared spore suspension was pipetted on the center of the agar plate. The plates were incubated at 25° C. Measurement of the fungal growth was done using callipers at different time points. Assessment of the infection area was 6 days after inoculation.
# The insecticide levels and the period after which the assessments were made are presented as specified for the different insecticides are presented in Table 5 below. Synergistic calculation was done using the Colby equation. Experiment was performed in 5-fold.
# The experiments were performed as described in Example 3. The product KARATE ZEON® of company Syngenta containing the active ingredient lambda-cyhalothrin belonging to IRAC Group 3 was tested. Assessment of the infection area was 6 days after inoculation. Experiment was performed in 5-fold.
# Colletotrichum spp. = assay: Antifungal effect against Colletotrichum infection on wounded skin of pepper fruits (Colby synergy); assay type: in vivo
# Text: as §1, with “effect. […]” for “effect.”
# For the treatment, 5 wounds per pepper side were done as previously described. In addition, one wound was done as negative control. Depending on the number of sides of the pepper, 3 to 4 treatments were done per paprika. Per wound 10 μl of treatment was placed on the wound. The treatments were let to dry in a down flow cabinet for about 30 minutes. After drying 5 μl spore suspension at a concentration of 10^7 spores per ml were placed on the wounds. The fungus was isolated from Colletotrichum-infected plant material and identified using techniques known to the person skilled in the art. The pepper were placed as described previously in a transparent container, with the difference that the containers were then placed in a transparent plastic zipper bag. The bags with peppers were placed at room temperature and in the dark for two days. After that the size of the lesions were measured. Assessment of the infection area was 4 days after inoculation. Experiment was performed in 5-fold.
# (§2) The fungus was isolated from Colletotrichum-infected plant material and identified using techniques known to the person skilled in the art. Assessment of the infection area was performed 5 days after inoculation. Experiment was performed in 5-fold.
# as §2, with “The active ingredient imidacloprid was formulated as described in Table 2. Imidacloprid belonging to IRAC Group 4. The” for “The”
# The fungus was isolated from Colletotrichum-infected plant material and identified using techniques known to the person skilled in the art. Assessment of the efficacy was 5 days after inoculation. Experiment was performed in 5-fold.
# The fungus was isolated from Colletotrichum-infected plant material and identified using techniques known to the person skilled in the art. Assessment of the infection area was performed 6 days after inoculation. Experiment was performed in 5-fold.
# The fungus was isolated from Colletotrichum-infected plant material and identified using techniques known to the person skilled in the art. Assessment of the infection area was performed 4 days after inoculation. Experiment was performed in 5-fold.
# [1] = natamycin-insecticide 0.5-0 ppm, Table 5
# [2] = natamycin-insecticide 1-0 ppm, Table 10
# [3] = natamycin-insecticide 1:0 ppm, 4 days after inoculation, Table 13
# [4] = natamycin-insecticide 1:0 ppm, 5 days after inoculation, Table 15
# [5] = natamycin-insecticide 1:0 ppm, 5 days after inoculation, Table 16
# [6] = natamycin-insecticide 1:0 ppm, 5 days after inoculation, Table 17
# [7] = natamycin:abamectin 1:0 ppm, 4 days after inoculation, Table 20
# [8] = natamycin:fipronil 1:0 ppm, 6 days after inoculation, Table 19
smiles,measurement,setting,value
C[C@@H]1C/C=C/C=C/C=C/C=C/[C@H](O[C@@H]2O[C@H](C)[C@@H](O)[C@H](N)[C@@H]2O)C[C@@H]2O[C@](O)(C[C@@H](O)C[C@H]3O[C@@H]3/C=C/C(=O)O1)C[C@H](O)[C@H]2C(=O)O [natamycin],Avg infected area,Fusarium graminerum; [1],1054.4 mm2
same,Observed antifungal activity,Fusarium graminerum; [1],7.2%
same,Avg infected area,Fusarium graminerum; [2],1107.7 mm2
same,Observed antifungal activity,Fusarium graminerum; [2],69.4%
same,Avg infected area,Colletotrichum spp.; [3],10.6 mm2
same,Observed antifungal activity,Colletotrichum spp.; [3],33.8%
same,Avg infected area,Colletotrichum spp.; [4],30.2 mm2
same,Observed antifungal activity,Colletotrichum spp.; [4],28.6%
same,Avg infected area,Colletotrichum spp.; [5],30.2 mm2
same,Observed antifungal activity,Colletotrichum spp.; [5],28.6%
same,Avg infected area,Colletotrichum spp.; [6],22.4 mm2
same,Observed antifungal activity,Colletotrichum spp.; [6],59.5%
same,Avg infected area,Colletotrichum spp.; [7],13.5 mm2
same,Observed antifungal activity,Colletotrichum spp.; [7],39.8%
same,Avg infected area,Colletotrichum spp.; [8],24.7 mm^2
same,Observed antifungal activity,Colletotrichum spp.; [8],50.7%
